Data published in patent US9872844B2, “Compositions and methods for the reduction or prevention of hepatic steatosis” (priority 2014, dated 2018).

Tests used:
hepatic steatosis [1] = experiment: Prophylactic treatment concurrent with high fat diet: liver mass and hepatic lipid accumulation; type: in vivo, C57Bl/6 mice; conditions: treatment and HFD started same day, six weeks, metformin alone 1.5 g/kg diet, with or without resveratrol 12.5 mg/kg diet
Method: In this study, the prophylactic effects of metformin alone, and various combinations of metformin, leucine, and resveratrol on liver mass and hepatic steatosis are assessed. C57Bl/6 mice are assigned to the following experimental groups as depicted in Table 25: Drug treatments and high fat diet feeding (as described in Example 1) are initiated on the same day and are carried out for six weeks. The effects of the treatments and diet on liver mass and hepatic lipid accumulation are assessed as described in the preceding examples. […] In this study, the prophylactic effects of metformin alone, and various combinations of metformin, HMB, and resveratrol on liver mass and hepatic steatosis are assessed. C57Bl/6 mice are assigned to the following experimental groups as depicted in Table 26: Drug treatments and high fat diet feeding (as described in Example 1) are initiated on the same day and are carried out for six weeks. The effects of the treatments and diet on liver mass and hepatic lipid accumulation are assessed as described in the preceding examples. […] In this study, the prophylactic effects of sub-therapeutic leucine alone, and co-administration of leucine and the PDE5-specific inhibitor icariin on liver mass and hepatic steatosis are assessed. […] The effects of the treatments and diet on liver mass and hepatic lipid accumulation are assessed as described in the preceding examples.

hepatic steatosis [2] = experiment: Histological analysis of hepatic lipid accumulation in chronic high fat diet mice; type: in vivo, C57Bl/6 mice; conditions: HFD mice, six weeks
Source text: (§1) Chronic high fat diet was used in C57Bl/6 mice as an experimental model of hepatic steatosis. Male C57/BL6 mice were either maintained on standard low-fat diet (control; LFD; 10% energy from fat) or placed on a high fat (HFD; 60% energy from fat, Research Diets #D12492, Research Diets, Inc, New Brunswick, N.J.) at six weeks of age to induce obesity and fatty infiltration of the liver. […] Animals were then randomized to treatments for an additional six weeks, with 10 animals per group, as specified in the following examples.
(§2) In this study, the effects of metformin alone (therapeutic dose), subtherapeutic metformin alone, subtherapeutic leucine, and various combinations of leucine, metformin, and resveratrol on liver weight and hepatic lipid accumulation were assessed. The 1.5 g/kg diet of metformin corresponds to a therapeutically effective dose of metformin in humans. […] Likewise, the 24 g/kg dose of leucine represents a sub-therapeutic dose that was predicted to exert no significant independent effects on liver mass or hepatic steatosis. Following induction of hepatic steatosis as described in Example 1, animals were treated according to the following treatment groups as depicted in Table 21:
(§3) In this study, the effects of metformin alone (therapeutic dose) vs. combination therapy with sub-therapeutic amounts of metformin and leucine on liver weight and hepatic lipid accumulation were assessed. Following induction of hepatic steatosis as described in Example 1, animals were treated for six weeks according to the following treatment groups as depicted in Table 22:

hepatic steatosis [3] = experiment: Liver weight after six weeks treatment in chronic high fat diet mice; type: in vivo, C57Bl/6 mice; conditions: therapeutic metformin alone 1.5 g/kg diet
Source text: as §1, §2, §3

liver triglycerides = conditions: Example 3; HFD mice, six weeks; therapeutic metformin alone 1.5 g/kg diet
Source text: as §1, §3

[4] = system: hepatic lipid accumulation; conditions: 25 mg icariin/kg diet; corresponding to 4 mg/kg body weight/day; previous published studies; cited from earlier work

| Compound | HFD-induced increase in liver mass and hepatic lipid accumulation (prophylactic) (hepatic steatosis [1]; Example 6, leucine 24 g/kg diet + metformin 0.15-0.50 g/kg diet) | HFD-induced increase in liver mass and hepatic lipid accumulation (prophylactic) (hepatic steatosis [1]; Example 7, HMB (CaHMB, 2 g/kg diet) + metformin 0.15-0.50 g/kg diet) | hepatic steatosis (histological analysis) (hepatic steatosis [2]; Example 2, metformin alone 1.5 g/kg diet, leucine 24 g/kg diet, resveratrol 12.5 mg/kg diet, combination with sub-therapeutic metformin) | hepatic steatosis (histological analysis) (hepatic steatosis [2]; Example 3, single agents at 'therapeutic dosages' (metformin 1.5 g/kg diet)) | hepatic steatosis (histological analysis) (hepatic steatosis [2]; Example 4, therapeutic metformin alone 1.5 g/kg diet) | effect on liver weight (hepatic steatosis [3]; Example 2, HFD mice, leucine 24 g/kg diet, resveratrol 12.5 mg/kg diet) | effect on liver weight (hepatic steatosis [3]; Example 3, HFD mice, p<0.02 vs. HFD, n.s. compared to LFD) | effect on liver weight (hepatic steatosis [3]; Example 4, HFD mice, p<0.03) | effect on liver triglycerides (liver triglycerides) | effect on liver mass or hepatic lipid accumulation [4] |
| --- | --- | --- | --- | --- | --- | --- | --- | --- | --- | --- |
| metformin | attenuates the HFD-induced increase in liver mass and hepatic lipid accumulation | attenuates the HFD-induced increase in liver mass and hepatic lipid accumulation | partial reversal of the effects of HFD on hepatic steatosis | partially reversed hepatic steatosis | partially reversed hepatic steatosis | partially reverse the effect of high fat diet on liver weight | reversed the effect of high fat diet on liver weight back to control levels | reversed the effect of high fat diet on liver weight back to control levels | partially reversed the effect of high fat diet on liver triglycerides |  |
| COc1ccc(-c2oc3c(CC=C(C)C)c(O[C@@H]4O[C@H](CO)[C@@H](O)[C@H](O)[C@H]4O)cc(O)c3c(=O)c2O[C@@H]2O[C@@H](C)[C@H](O)[C@@H](O)[C@H]2O)cc1 [icariin] |  |  |  |  |  |  |  |  |  | no effect |
